According to ChEMBL document CHEMBL4706648, “Antitubercular 2-Pyrazolylpyrimidinones: Structure-Activity Relationship and Mode-of-Action Studies” (J Med Chem, 2021):
≈ marks a conversion by molar mass, not a printed value. Calls of active or inactive are those of the source. The rule behind the calls is not given here.

What was measured:
[1] = AUC (0 to infinity) in C57/BL6 mouse blood at 2 mg/kg, iv administered as bolus dose measured upto 24 hrs by LC-MS/MS analysis; format: ADME, organism-based; parameters: route intravenous, dose 2 mg/kg, time <=24
[2] = Protein binding in human plasma assessed as unbound fraction at 5 uM incubated for 1 hr at 37 degreeC and measured after 4 hrs by ultracentrifugation based LC-MS/MS analysis; format: ADME, cell-free; conditions: 5 h
[3] = tested on: Mycobacterium tuberculosis; format: functional; conditions: H37Rv, 168 h, time 7 day
[4] = AUC (0 to infinity) in C57/BL6 mouse blood at 20 mg/kg, po measured upto 24 hrs by LC-MS/MS analysis; format: ADME, organism-based; parameters: route oral, dose 20 mg/kg, time <=24
[5] = Aqueous solubility of compound at pH 7.4; format: physicochemical; conditions: buffer
[6] = tested on: Mycobacterium tuberculosis; assay: Bactericidal activity against Mycobacterium tuberculosis H37Rv assessed as reduction in CFU grown under middlebrook 7H9/OADC-Glycerol-Tween80 medium at 1 to 2 times MIC incubated for 7 days; format: functional; conditions: time 7 day
[7] = Metabolic stability in mouse liver microsomes assessed as parent compound remaining after 30 mins; format: ADME, Microsome; conditions: 0.5 h
[8] = Apparent half life in C57/BL6 mouse blood at 20 mg/kg, po measured upto 24 hrs by LC-MS/MS analysis; format: ADME, organism-based
[9] = Drug metabolism in C57/BL6 mouse blood assessed as glucuronide metabolite formation by HPLC analysis; format: ADME, tissue-based
[10] = Cmax in C57/BL6 mouse blood at 2 mg/kg, iv administered as bolus dose measured upto 24 hrs by LC-MS/MS analysis; format: ADME, organism-based; parameters: route intravenous, dose 2 mg/kg, time <=24
[11] = tested on: Mycobacterium tuberculosis; assay: Antimycobacterial activity against mmpL3 gene silenced Mycobacterium tuberculosis H37Rv assessed as inhibition of bacterial growth grown under middlebrook 7H9 medium incubated for 7 days by alamar blue broth microdilution method; format: functional, organism-based; conditions: time 7.0 day
[12] = Total blood clearance in C57/BL6 mouse blood at 2 mg/kg, iv administered as bolus dose measured upto 24 hrs by LC-MS/MS analysis; format: ADME, organism-based
[13] = tested on: Mycobacterium tuberculosis; assay: Antimycobacterial activity against wild-type Mycobacterium tuberculosis H37Rv assessed as inhibition of bacterial growth grown under middlebrook 7H9 medium incubated for 7 days by alamar blue broth microdilution method; format: functional; conditions: 168 h, time 7 day
[14] = Metabolic stability in human liver microsomes assessed as parent compound remaining after 30 mins; format: ADME, Microsome; conditions: 0.5 h
[15] = Volume of distribution during elimination phase in C57/BL6 mouse blood at 2 mg/kg, iv administered as bolus dose measured upto 24 hrs by LC-MS/MS analysis; format: ADME, organism-based
CHO = assay: Cytotoxicity against CHO cells assessed as reduction in cell viability by MTT assay; format: cell-based; conditions: Cricetulus griseus
[16] = Apparent half life in C57/BL6 mouse blood at 2 mg/kg, iv administered as bolus dose measured upto 24 hrs by LC-MS/MS analysis; format: ADME, organism-based
[17] = Kinetic solubility of compound at 200 uM at pH 7.4 measured after 20 hrs by HPLC-DAD analysis; format: physicochemical; conditions: buffer, pH 7.4, 20 h
[18] = Tmax in C57/BL6 mouse blood at 20 mg/kg, po measured upto 24 hrs by LC-MS/MS analysis; format: ADME, organism-based
[19] = Metabolic stability in rat liver microsomes assessed as parent compound remaining after 30 mins; format: ADME, Microsome; conditions: 0.5 h
[20] = Cmax in C57/BL6 mouse blood at 20 mg/kg, po measured upto 24 hrs by LC-MS/MS analysis; format: ADME, organism-based; parameters: route oral, dose 20 mg/kg, time <=24
[21] = Intrinsic clearance in C57/BL6 mouse blood at 2 mg/kg, iv administered as bolus dose measured upto 24 hrs by LC-MS/MS analysis; format: ADME, organism-based; conditions: in vivo
[22] = Oral bioavailability in C57/BL6 mouse blood at 20 mg/kg measured upto 24 hrs by LC-MS/MS analysis; format: ADME, organism-based
[23] = biological target: Voltage-gated inwardly rectifying potassium channel KCNH2 (Homo sapiens, UniProt Q12809); assay: Inhibition of human ERG
Voltage-gated inwardly rectifying potassium channel KCNH2, sequence (Q12809 whole entry): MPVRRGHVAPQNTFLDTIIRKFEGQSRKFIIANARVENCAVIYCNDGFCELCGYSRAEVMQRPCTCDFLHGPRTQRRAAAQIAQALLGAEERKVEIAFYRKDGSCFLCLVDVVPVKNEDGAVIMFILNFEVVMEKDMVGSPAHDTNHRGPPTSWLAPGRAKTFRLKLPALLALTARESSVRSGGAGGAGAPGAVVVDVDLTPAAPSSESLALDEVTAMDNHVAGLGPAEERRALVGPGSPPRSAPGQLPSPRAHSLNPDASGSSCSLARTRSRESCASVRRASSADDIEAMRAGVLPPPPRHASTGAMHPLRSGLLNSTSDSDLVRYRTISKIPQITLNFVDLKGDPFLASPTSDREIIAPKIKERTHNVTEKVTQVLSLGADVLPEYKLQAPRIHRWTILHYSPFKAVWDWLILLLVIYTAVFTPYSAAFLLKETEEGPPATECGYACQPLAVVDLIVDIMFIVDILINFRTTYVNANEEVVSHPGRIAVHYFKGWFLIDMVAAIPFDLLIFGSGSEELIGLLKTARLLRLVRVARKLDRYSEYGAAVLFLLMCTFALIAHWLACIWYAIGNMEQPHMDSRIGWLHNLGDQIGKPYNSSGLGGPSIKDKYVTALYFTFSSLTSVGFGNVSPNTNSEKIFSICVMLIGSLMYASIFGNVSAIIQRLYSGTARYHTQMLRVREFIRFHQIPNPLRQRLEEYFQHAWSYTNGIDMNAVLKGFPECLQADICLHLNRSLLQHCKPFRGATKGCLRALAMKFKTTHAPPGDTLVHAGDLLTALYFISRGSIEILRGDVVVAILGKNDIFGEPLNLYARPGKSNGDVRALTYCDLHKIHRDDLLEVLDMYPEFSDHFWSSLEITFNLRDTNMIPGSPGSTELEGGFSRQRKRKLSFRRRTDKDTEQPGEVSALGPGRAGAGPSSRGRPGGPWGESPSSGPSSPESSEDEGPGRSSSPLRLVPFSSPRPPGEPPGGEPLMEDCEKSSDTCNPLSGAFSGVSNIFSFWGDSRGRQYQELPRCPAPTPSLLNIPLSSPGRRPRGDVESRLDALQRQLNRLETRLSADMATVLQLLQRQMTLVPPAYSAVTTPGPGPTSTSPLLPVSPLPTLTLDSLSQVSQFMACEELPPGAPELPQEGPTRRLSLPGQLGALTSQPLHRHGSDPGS

[24] = tested on: Mycobacterium tuberculosis; assay: Upregulation of rv1342 in Mycobacterium tuberculosis H37Rv assessed as fold change incubated for 6 hrs by microarray based assay; format: functional
[25] = tested on: Mycobacterium tuberculosis; assay: Upregulation of rv1346 in Mycobacterium tuberculosis H37Rv assessed as fold change incubated for 6 hrs by microarray based assay; format: functional
[26] = tested on: Mycobacterium tuberculosis; assay: Upregulation of rv1349 in Mycobacterium tuberculosis H37Rv assessed as fold change incubated for 6 hrs by microarray based assay; format: functional
[27] = tested on: Mycobacterium tuberculosis; assay: Upregulation of rv3269 in Mycobacterium tuberculosis H37Rv incubated for 6 hrs by microarray based assay; format: functional
[28] = tested on: Mycobacterium tuberculosis; assay: Upregulation of rv1348 in Mycobacterium tuberculosis H37Rv assessed as fold change incubated for 6 hrs by microarray based assay; format: functional
[29] = tested on: Mycobacterium tuberculosis; format: functional; conditions: H37Rv, time 6.0 hrs
[30] = tested on: Mycobacterium tuberculosis; format: functional; conditions: H37Rv, time 6.0 hrs; remark: listed apart in the source
[31] = tested on: Mycobacterium tuberculosis; assay: Upregulation of rv2384 in Mycobacterium tuberculosis H37Rv incubated for 6 hrs by microarray based assay; format: functional
[32] = tested on: Mycobacterium tuberculosis; format: functional; conditions: H37Rv, 168 h, time 7 day; remark: listed apart in the source
[33] = Metal chelating activity assessed as Fe2+-compound complex formation by measuring shift in absorbance at 10 uM at 285 nm measured after 1 hr in presence of ferrous sulphate by UV-Visible spectrophotometric analysis
[34] = Metal chelating activity assessed as Fe2+-compound complex formation by measuring decrease in band intensity at 10 uM measured after 1 hr in presence of ferrous sulphate by UV-Visible spectrophotometric analysis
[35] = tested on: Mycobacterium tuberculosis; assay: Upregulation of rv1347 in Mycobacterium tuberculosis H37Rv assessed as fold change incubated for 6 hrs by microarray based assay; format: functional
[36] = tested on: Mycobacterium tuberculosis; format: functional; conditions: H37Rv, time 6.0 hrs; remark: listed apart in the source
[37] = tested on: Mycobacterium tuberculosis; assay: Upregulation of rv1343 in Mycobacterium tuberculosis H37Rv assessed as fold change incubated for 6 hrs by microarray based assay; format: functional
[38] = tested on: Mycobacterium tuberculosis; format: functional; conditions: H37Rv, time 6.0 hrs; remark: listed apart in the source
[39] = tested on: Mycobacterium tuberculosis; assay: Upregulation of rv3270 in Mycobacterium tuberculosis H37Rv incubated for 6 hrs by microarray based assay; format: functional
[40] = tested on: Mycobacterium tuberculosis; format: functional; conditions: H37Rv, time 6.0 hrs; remark: listed apart in the source
[41] = tested on: Mycobacterium tuberculosis; assay: Upregulation of rv2385 in Mycobacterium tuberculosis H37Rv incubated for 6 hrs by microarray based assay; format: functional
[42] = tested on: Mycobacterium tuberculosis; format: functional; conditions: H37Rv, time 6.0 hrs; remark: listed apart in the source
[43] = tested on: Mycobacterium tuberculosis; assay: Upregulation of rv1344 in Mycobacterium tuberculosis H37Rv assessed as fold change incubated for 6 hrs by microarray based assay; format: functional
[44] = tested on: Mycobacterium tuberculosis; format: functional; conditions: H37Rv, time 6.0 hrs; remark: listed apart in the source
[45] = tested on: Mycobacterium tuberculosis; format: functional; conditions: H37Rv, time 6.0 hrs; remark: listed apart in the source
[46] = tested on: Mycobacterium tuberculosis; assay: Upregulation of rv1345 in Mycobacterium tuberculosis H37Rv assessed as fold change incubated for 6 hrs by microarray based assay; format: functional
[47] = tested on: Mycobacterium tuberculosis; format: functional, H37Rv; conditions: time 7 day
[48] = C57/BL6, mouse, blood, read-out: t1/2(app) (converted)

In the case of CCNc1cc(C)nn1-c1nc(-c2cccnc2)cc(=O)[nH]1, the AUC(0-inf) ([1]; C57/BL6, mouse, blood) is reported as 256 µM·h, the Fu [2] is reported as 0.009 and the MIC [3] is reported as 6.25 µM (≈ 1.85 µg/mL). For the same compound, the AUC(0-inf) [4] was 1090 µM·h, the solubility [5] was 90 µM (≈ 26.7 µg/mL) and the Activity [6] was 2 log10CFU. For the same compound, the Stabilty [7] was 94%, the half-life [8, 48] was 6.1 h and the Drug metabolism [9] was “Metabolite_Detected”. For the same compound, the Cmax ([10]; C57/BL6, mouse, blood) was 33.1 µM, the Activity [11] was “Active” and the clearance [12] was 0.4 mL/min/kg. The MIC [13] was 5.8 µM (≈ 1.72 µg/mL), the Stabilty [14] was 80% and the Vd ([15]; C57/BL6, mouse, blood, read-out: Vd) was 0.1 L/kg. For the same compound, the IC50 (CHO) was > 50 µM, the half-life [16, 48] was 4 h and the Kinetic_solubility [17] was 90 µM. The Tmax ([18]; C57/BL6, mouse, blood, read-out: Tmax) was 1 h, the Stabilty [19] was 95% and the Cmax ([20]; C57/BL6, mouse, blood) was 104 µM. It also gave a CL [21] of 34 mL/min/kg and a bioavailability ([22]; C57/BL6, mouse, blood) of 44%.
Compound Cc1cc(C)n(-c2nc(C(F)(F)F)cc(=O)[nH]2)n1 has an AUC ([1]; mouse, in vivo, 24 h) of 2928 µM·min, a Fu [2] of 0.006 and an MIC [3] of 12 µM (≈ 3.1 µg/mL). The solubility [5] was 200 µM (≈ 51.6 µg/mL), the Activity [6] was 2 log10CFU and the Stabilty [7] was > 99%. The “t1/2(app)” value ([8]; mouse, in vivo, 20 mg/kg, 24 h) was 4 h, the Cmax ([10]; mouse, in vivo, 24 h) was 29.1 µM and the Activity [11] was “Active”. For the same compound, the MIC [13] was 15 µM (≈ 3.87 µg/mL), the IC50 [23] was > 30 µM and the Stabilty [14] was > 99%. For the same compound, the Vd ([15]; mouse, in vivo, 2 mg/kg, 24 h) was 0.7 L/kg, the IC50 (CHO) was 150 µM and the “t1/2(app)” value ([16]; mouse, in vivo, 2 mg/kg, 24 h) was 3.1 h. For the same compound, the Kinetic_solubility [17] was 200 µM, the Tmax ([18]; mouse, in vivo, 20 mg/kg, 24 h) was 0.5 h and the Stabilty [19] was 92%. It also gave a Cmax ([20]; mouse, in vivo, 24 h) of 65.6 µM, a CL [21] of 476 mL/min/kg and an F ([22]; mouse, in vivo, 20 mg/kg, 24 h) of 41%.
Cc1cc(Nc2ccccn2)n(-c2nc(C(F)(F)F)cc(=O)[nH]2)n1 showed a fold change (FC) [24] of 2, a fold change (FC) [25] of 2 and a fold change (FC) [26] of 2. The Activity [27] was “Active”, the fold change (FC) [28] was 2 and the MIC [3] was 0.9 µM (≈ 0.303 µg/mL). The Activity [29] was “Active”, the Activity [30] was “Active” and the Activity [31] was “Active”. The MIC [32] was 0.12 µM (≈ 0.0404 µg/mL), the solubility [5] was 25 µM (≈ 8.41 µg/mL) and the deltaA [33] was 300 nm. The Stabilty [7] was > 99%, the Activity [34] was “Active” and the fold change (FC) [35] was 2. The Activity [36] was “Active”, the fold change (FC) [37] was 2 and the Activity [38] was “Active”. For the same compound, the Activity [39] was “Active”, the Activity [40] was “Active” and the Activity [41] was “Active”. For the same compound, the Activity [42] was “Active”, the Stabilty [14] was > 99% and the fold change (FC) [43] was 2. For the same compound, the Activity [44] was “Active”, the Activity [45] was “Active” and the IC50 (CHO) was 23 µM. For the same compound, the fold change (FC) [46] was 2, the Kinetic_solubility [17] was 25 µM and the “fold change (FC)” value [47] was “>=32”. For the same compound, the Stabilty [19] was 96%.
